Measurements taken from patent US12415939B2, “Nano-adhesive and surface primer compound and use thereof” (The Regents of the University of California, priority 2015, dated 2025).
Each block holds one compound with its values, some of them ahead of it.

How the values were obtained:
[1] = Cyclic voltammetry of catechol oxidation; type: physicochemical; conditions: DI water, scan rate 1 mV s−1, Ag/AgCl reference
Protocol: (§1) Cyclic voltammetry was performed on a Versastat 3 potentiostat from Ametek Co. These analyses were carried out using a three-electrode cell: a Pt wire as the counter electrode, an Ag/AgCl reference electrode, and a Carbon paste electrode (CPE) served as the working electrode. CPE is the best choice for adhesive materials because of its ability to be completely polished before each experiment. Catechol auto-oxidation was avoided by performing all electrochemical experiments with degassed deionized water in a glove bag under argon. Scan rate 1 mV s-1 was used for all experiments. CV of 5 mM synthesized polymers and 5 mM methyl catechol, a simple catechol-containing compound, were compared. Oxidation of Catechol carrying molecules occurred at more positive potentials than methyl catechol, indicating the unique structure of the dispersions provide shielding effects that stabilized catechol groups (FIG. 3).
Cyclic voltammetry was performed on a Versastat 3 potentiostat from Ametek Co. (Berwyn, PA). These analyses were carried out using a three-electrode cell: a Pt wire as the counter electrode, an Ag/AgCl reference electrode, and a Carbon paste electrode (CPE) served as the working electrode. CPE is the best choice for adhesive materials because of its ability to be completely polished before each experiment.
as §1, with “s^−1” for “s-1”, “molecules” for “polymers”, “groups. Z-Cat-Ben with an oxidation peak at 840 mV is more resistant to oxidation than the other species” for “groups”, “42).” for “3).”

[2] = Lap shear test of cured PMA resin on primed tooth enamel; parameters: species or system human
Protocol: 1 wt % primer solution was spread on mica, glass, tooth enamel, or a silicon wafer and incubated for 1 min, followed by thorough washing with methanol (for MDP, P1-P3) or DMSO (for P4) and drying by flowing nitrogen. The surfaces were exposed to a basic aqueous solution (pH 9, using sodium hydroxide), incubated for 1 min, and drying by flowing nitrogen (see FIG. 52). The methacrylic comonomer blend (Bis-GMA, TEGDMA, DMAEMA and CQ) was packed in a gelatin capsule (size #4, 5-mm diameter, Torpac Inc.) and placed up on top of the primer-treated substrates. The comonomer blend was cured (or crosslinked) for 1 min using a portable dental curing lamp (Foshan Liang Ya Dental Co., LY-A180, 420-480 nm, 1200-2000 mW·cm^−2) (see FIG. 53). Uniaxial compression was applied to the capsule at a rate of 0.05 inch min^−1 using a materials testing system (MTS Bionix 200) until the capsules are separated from the substrate. The lap shear fracture measurements were repeated at least 10 times for each condition.

[3] = QCM-D adsorption of primers; type: physicochemical; conditions: for surface concentration of adsorbed layer: Sauerbrey, after rinsing
Protocol: A ‘static cell’ (often called ‘Open Module’) QCM-D (Q-Sense, Biolin Scientific) was employed to quantitatively evaluate the adsorption of each primer onto SiO2 surface using a quartz sensor (QSX 303, Biolin Scientific). Changes in resonance frequency (ΔF) and dissipation (ΔD) of the SiO2 were recorded and used to measure the adsorbed mass and layer viscoelasticity, respectively, of the primer deposited on the sensor. In detail, pure solvent (100 μl) was dropped onto the sensor and equilibrated for ˜20-30 min. Then, 2 wt % primer solution (100 μl) was dropped onto the sensor (this is labeled “Solution Drop-in” in FIG. 51) and equilibrated until the frequency and dissipation signals stabilized. To remove unbound primers, the sensor was rinsed with solvents (this is labeled “Solvent Rinsing” in FIG. 51) and equilibrated until frequency and dissipation signals stabilized.
Mass loss of P3 and P4 during the rinsing was negligible compared to P2 which lost 60% of initial mass, indicating outstanding adsorption efficiency of catechol-containing primers on SiO2 surfaces even compared to mussel foot protein adsorption (˜30% loss of mfp-3s^3). The priming thickness of P4 estimated by QCM-D is ˜3.1 nm which agrees with the average height of AFM images (˜3.5 nm), assuming that QCM-D measures the average thickness of a uniform layer. The smaller average thickness of P4 (˜3.1 nm) compared to the molecular contour length (˜4.8 nm) may be attributed to the flexible alkyl spacer in P4. The possibility of a softer, more flexible layer with P4 is supported by a higher change in dissipation (ΔD) compared to other primers.

[4] = SFA adhesion of cured PMA resin between primer-treated mica surfaces
Protocol: Atomically-smooth muscovite mica sheets were freshly cleaved (thickness of 2-5 μm) and attached on another large freshly cleaved mica backing sheet under a laminar flow hood and placed in a desiccator for clean storage. To ensure use of a fresh surface for each experiment, mica was peeled away from the backing sheet and glued on cylindrical disks using an epoxy glue (EPON 1004 F® from Exxon Chemicals). In each experiment, the mica surfaces were treated with one of the primer solutions, as described for the lap shear experiments, and then mounted in the SFA in a cross cylindrical geometry. In contrast to typical SFA experiments, which use an interferometric method to calculate the disk-disk separation distances and thus the interaction forces, in the SFA used here for adhesion testing, the disk separations were directly measured using semiconductor strain-gauged double cantilever springs (k=1000-10000 N/m)(see FIG. 67). After separating the surfaces, 100 […]1 of comonomer blend was injected between the two surfaces. Then, ˜600 mN of load was applied, followed by visible light curing for 1 min using the portable dental curing lamp (see FIG. 54G). Adhesion strength of cured polymer toward the mica was measured by detaching (unloading) two surfaces. All loading and unloading were performed using a coarse micrometer at the velocity of […]. The SFA measurements were repeated at least 5 times for each condition.

[5] = Surface forces apparatus (SFA) cohesion/adhesion between thin films on mica; type: physicochemical; conditions: for cohesion (or adhesion) energy Wc: symmetric films adsorbed from 5 mM, DI water
Protocol: The interaction between two surfaces can be measured with nano-Newton level force resolution and Angstrom level resolution in the separation distance between the surfaces. The details of the SFA techniques have been describe in a work by Israelachvili et al. In a typical SFA experiment (FIG. 2C), the distance and the force between the surfaces are measured simultaneously. To begin with, the instrument is calibrated at large separation distances. When the two surfaces are not interacting, i.e., they are separated by large distances, the change in the separation between them is equal to the distance through which the motor moves the lower surface towards or away from the upper surface (or the upper surface driven by the piezo-tube moves towards the lower surface). However, once the surfaces are close enough to start interacting with each other, the measured separation distance deviates from the expected separation calibrated when there is no force between the surfaces. This deviation is due to the deflection of the double cantilever spring and is directly proportional to the force acting normally between the two opposing surfaces. Thus the normal force can be measured using Hooke's law, F=kΔx, where k is the spring constant of the double-cantilever spring and Δx=Dactual−Dapplied is the deflection of the spring, determined by taking the difference between the applied change in position of one of the surfaces Dapplied and the actual change in distance measured between the surfaces Dactual. The actual distance, Dactual, between the surfaces can be measured by multiple beam interferometry (MBI) and will be discussed below.
The distance between the surfaces, shape of the interface and the refractive index of the media between the surfaces can be accurately determined by Multiple Beam Interferometry (MBI) technique. In this technique, white light is directed through two back-silvered mica surfaces (or uniform and same thickness). As a white light passes between the mica surfaces, it undergoes interference due to the optical trap set up by the back silver on each of these surfaces giving rise to discrete wavelengths of light (FIG. 2C). These wavelengths of light are resolved in a spectrometer creating interference fringes known as ‘fringes of equal chromatic order’ (FECO). Since mica is birefringent, the FECO appears as doublets and termed as β and γ. Alternate fringes are termed as odd and even fringes with odd fringes having nodes at the center and even fringes with anti-nodes in the center. The FECO is then recorded on a camera and analyzed to determine the distance between the surfaces using the following equations: […]
The adhesion/cohesion energy of the synthetic zwitterionic molecules was investigated in SFA (SurForce LLC, Santa Barbara, CA). Two molecularly smooth freshly cleaved back silvered mica surfaces glued on cylindrical silica discs of radius of curvature, R˜2 cm, were mounted in the SFA and 50 μL of a colloidal dispersion of the synthetic molecules in DI water were injected between the surfaces at different concentrations (C=0.5-5 mM) and the forces between the thin films of the molecules were measured by Multiple Beam Interferometry (MBI). The adhesion forces between Z-Cat-C10 molecules on various surfaces, e.g., silica and copper, were also measured by AFM (MFP-3D, Asylum research, Goleta, CA) in DI water and ambient conditions, respectively, at room temperature. AFM probes with a silicon dioxide particle (10, 5, and 1 μm, respectively) on a silicon nitride (SN) cantilever-0.6 N m^−1 were purchased from Novascan Technologies, Inc (Ames, IA). Cantilever spring constants were measured for each force run. Images of Z-Cat-C10 coating on silicon wafer and copper plates were visualized in an AFM. […]

E1/2 [1]: ~0.12 V
E1/2 ([1]; listed as methyl catechol): 0.124 V
SMILES: Cc1ccc(O)c(O)c1 [4-methylcatechol, reference compound]

SMILES: C=C(C)C(=O)OCCCCCCCCCCOP(=O)(O)O [MDP, 10-methacryloyloxydecyl dihydrogen phosphate, reference compound]
lap shear strength σshear,max [2]: 3.1±0.2 MPa

surface concentration of adsorbed layer [3]: 0 ng/cm^2
SMILES: C=CC(=O)OCc1ccccc1 [P1, Benzyl acrylate, reference compound]
lap shear strength σshear,max [2]: no increase in the lap shear strength
increase in adhesion vs plain mica (no primer) [4]: no increase in adhesion

surface concentration of adsorbed layer [3]: 230 ng/cm^2
mass loss during rinsing ([3]; of initial mass): 60%
SMILES: C=CC(=O)OCc1ccc(O)cc1 [P2, 4-Hydroxybenzyl acrylate]
lap shear strength σshear,max [2]: no increase in the lap shear strength
increase in adhesion vs plain mica (no primer) [4]: no increase in adhesion

film (hard-wall) thickness ([5]; deposited at 0.5 mM in DI water): 2 nm
hard-wall thickness ([5]; films adsorbed from 5 mM, mica): ~5 nm
SMILES: CN(C)CCOP(=O)(O)OCCCc1ccccc1 [Z-Ben-C8]
cohesion (or adhesion) energy Wc ([5]; mica): without cohesive tendencies

SMILES: CN(C)CCOP(=O)(O)OCCCc1ccc(O)c(O)c1 [Z-Cat-C4]
cohesion (or adhesion) energy Wc ([5]; mica): 19.2±2.4 mJ m^−2

SMILES: CN(C)CCOP(=O)(O)OCCCc1ccc(O)c(O)c1 [Z-Cat-C6]
cohesion (or adhesion) energy Wc ([5]; mica): 9.6±1.1 mJ m^−2

SMILES: CN(C)CCOP(=O)(O)OCCCc1ccc(O)c(O)c1 [Z-Cat-C8]
interaction energy ([5]; 0.5 mM concentration): ~22 mJ m^−2
cohesion (or adhesion) energy Wc ([5]; mica): 2.5±0.3 mJ m^−2
